The record followed here is US10085442B2, “Agrochemical formulation” (SYNGENTA PARTICIPATIONS AG, priority 2014, dated 2018).

The nature of this data set: Rainfastness of cyantraniliprole on soya leaf (Example 10). The class given is physicochemical, Glycine Max (Williams variety). To be noted: rain 10 mm/hour for one hour, 0.5 g of water replaced by copolymer. Here is the method: A range of substrates can be used in this test with the chosen material in this example being a soya leaf. Herein the soya, Glycine Max (Williams variety), was grown for 4 weeks in 4 inch pots with the top 2 tri-foliates used in the study. The leaves were mounted using double sided tape to flat tiles (30 cm by 30 cm) at an even spacing of 6 leaves per tile.
A deposition solution was then prepared at the concentration which would be used under commercial application conditions. In this case 0.12 g of cyantraniliprole technical was added to […] water for the control and the effect of the styrene malemide co-polymer determined by creating a similar sample with 0.5 g of the water replaced by styrene malemide co-polymer. […]
The quantities of cyantraniliprole in the acetonitrile solutions determined by mass spectrometry using a Waters Acquity UPLC and Thermo TSQ Quantum Ultra Triple Quadrupole MS Instrument or just LC/MS/MS. • Column: • Phase Ace C18 • Length (mm) 50 • Internal diameter (mm) 3.0 • Particle Size (μm) 3 • and the % active ingredient remaining after rainfall determined by dividing the quantity of cyantraniliprole on each leaf after rainfall by that before rainfall. • Cyantraniliprole: 2% cyantraniliprole remained on the leaves. • Cyantraniliprole+styrene malemide copolymer: 45% cyantraniliprole remained on the leaves.

With `CNC(=O)c1cc(C#N)cc(C)c1NC(=O)c1cc(Br)nn1-c1ncccc1Cl` [Cyantraniliprole, cyantraniliprole], the “% cyantraniliprole remained on the leaves after rainfall” value was determined as 2%.
